The results in this text go back to ChEMBL document CHEMBL1201862, “PubChem BioAssay data set” (2004).

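A five-concentration, 48-hour dose response in 96-well plates underlies each endpoint, interpolated linearly between surrounding concentrations. The concentration for 50% growth inhibition is given as GI50.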 Active and inactive are the calls of the source. No stated cut-off is given here; in the data, active = GI50 up to about 1.1 µM and inactive = higher.

Among the test systems are NCI-H23; M14; UACC-62; SK-OV-3; K562; LOX IMVI; SK-MEL-5; NCI-H522; RPMI-8226; HOP-62; 786-0; KM12; SR; SK-MEL-28; A549; HCT-15; COLO 205; PC-3.
What all share (test): NCI tumour cell line growth inhibition, 48 h

As for `CC(=O)NNc1nc(C)c(C(=O)NNC(=O)C(=O)Nc2ccc(C)c(C)c2)s1`, the GI50 in the test with NCI-H23 is > 100 µM (inactive); in the test on M14 it was > 100 µM (inactive); with UACC-62 it was > 100 µM (inactive); in the test on SK-OV-3 it was > 100 µM (inactive); in the test with K562, 52.6 µM (inactive); in the test with LOX IMVI, 16.7 µM (inactive). Further, the GI50 with SK-MEL-5 was > 100 µM (inactive); in the test with NCI-H522 it was 18.5 µM (inactive); in the test with RPMI-8226, 50.9 µM (inactive); with HOP-62 it was > 100 µM (inactive); with 786-0, > 100 µM (inactive); with KM12 it was 42.5 µM (inactive). Further, the GI50 is 54.1 µM (inactive) in the test on SR; > 100 µM (inactive) in the test on SK-MEL-28; > 100 µM (inactive) in the test with A549; 78.9 µM in the test on HCT-15; > 100 µM (inactive) with COLO 205.

Consider `COC(=O)CCc1cccnc1/C=N/O`, for which the GI50 in the test on NCI-H23, in the test with M14, with UACC-62, in the test with SK-OV-3, in the test on K562 and in the test with LOX IMVI was > 100 µM (inactive) in each case. For the same molecule, the GI50 in the test with SK-MEL-5, in the test with NCI-H522, in the test on HOP-62, in the test with 786-0, in the test on KM12 and in the test on SR was > 100 µM (inactive) in each case. Moreover, the GI50 with SK-MEL-28 was > 100 µM (inactive); in the test with A549 it was > 100 µM (inactive); in the test on HCT-15 it was over 100 µM; with COLO 205 it was > 100 µM (inactive).

For the molecule `O=C1/C(=C/c2ccc(Cl)cc2)NC(=S)N1CN1CCOCC1`, the GI50 in the test on PC-3, in the test with NCI-H23, in the test with M14, in the test on UACC-62, in the test with SK-OV-3 and in the test on K562 was > 100 µM (inactive) each time. The GI50 in the test on LOX IMVI, with SK-MEL-5, in the test on RPMI-8226, in the test on HOP-62, with 786-0 and in the test on KM12 was > 100 µM (inactive) each time. The GI50 was > 100 µM (inactive) with SK-MEL-28, > 100 µM (inactive) in the test on A549, over 100 µM with HCT-15 and > 100 µM (inactive) in the test with COLO 205.

`O=C(Nc1ccccc1)O/N=C1/CCCC/C1=C\c1ccccc1`: the GI50 in the test on NCI-H23 is 26 µM (inactive); in the test with M14, 17.8 µM (inactive); with UACC-62, 15.7 µM (inactive); in the test on SK-OV-3, 20.3 µM (inactive); in the test on K562, 10 µM (inactive); in the test with LOX IMVI it was 18.9 µM (inactive). Further, the GI50 with SK-MEL-5 is 13 µM (inactive); in the test on NCI-H522, 16.4 µM (inactive); in the test with RPMI-8226, 16.5 µM (inactive); in the test with HOP-62, 21.9 µM (inactive); in the test on 786-0, 16.7 µM (inactive); in the test with SR, 16.1 µM (inactive). The results for the GI50 in the test on SK-MEL-28, in the test on HCT-15 and in the test on COLO 205 were 17.6 µM (inactive), 11.3 µM and 14.5 µM (inactive), respectively.

In the case of `CN/N=C(/CC(=O)c1sc(-n2nc(-c3ccccc3)cc2-c2ccccc2)nc1C)C(=O)Nc1ccc(Cl)c(Cl)c1`, the GI50 in the test on NCI-H23 is 23.7 µM (inactive); with UACC-62, 26.5 µM (inactive); in the test with SK-OV-3 it was 24.6 µM (inactive); with K562, 20.4 µM (inactive); in the test on LOX IMVI, 22.5 µM (inactive); in the test with SK-MEL-5, 18 µM (inactive). Besides, the GI50 in the test on NCI-H522 is 28.1 µM (inactive); in the test on RPMI-8226, 40.1 µM (inactive); in the test with HOP-62, 19.4 µM (inactive); in the test on 786-0, 39.3 µM (inactive); with KM12, 41.7 µM (inactive); in the test on SR it was 29.3 µM (inactive). The GI50 in the test on SK-MEL-28 was 55.1 µM (inactive); in the test with A549 it was 37.9 µM (inactive); in the test on HCT-15 it was 31.3 µM; in the test with COLO 205 it was 28.9 µM (inactive).

Take `NC(=O)Cn1c(=O)oc2cc(C(=O)CN3CCOCC3)ccc21`: the GI50 with PC-3, with M14, with SK-OV-3, in the test with K562, with LOX IMVI and in the test on SK-MEL-5 was > 100 µM (inactive) in each case. Besides, the GI50 in the test on RPMI-8226, in the test with HOP-62, in the test on 786-0, in the test on KM12, in the test with SR and in the test on SK-MEL-28 was > 100 µM (inactive) throughout. Moreover, the GI50 with COLO 205 was > 100 µM (inactive).

In the case of `CNC(=O)OCc1nc(SC(C)C)n(C)c1COC(=O)NC`, the GI50 with NCI-H23 was > 100 µM (inactive); with M14, > 100 µM (inactive); with UACC-62, > 100 µM (inactive); in the test on SK-OV-3, > 100 µM (inactive); with K562 it was > 69.8 µM (inactive); with LOX IMVI, > 100 µM (inactive). In addition, the GI50 with SK-MEL-5 is > 100 µM (inactive); in the test with NCI-H522, 58.5 µM (inactive); in the test with RPMI-8226, > 71.1 µM (inactive); in the test with HOP-62, > 100 µM (inactive); in the test on 786-0, > 100 µM (inactive); in the test with KM12 it was > 100 µM (inactive). Also, the GI50 in the test with SR is > 100 µM (inactive); with SK-MEL-28 it was > 100 µM (inactive); in the test with A549, > 100 µM (inactive); in the test on HCT-15, over 100 µM; in the test on COLO 205 it was > 100 µM (inactive).

For `IC[P+]1(c2ccccc2)CCCC1`, the GI50 with NCI-H23 was 39.4 µM (inactive); in the test on M14 it was 46.5 µM (inactive); in the test with UACC-62, > 100 µM (inactive); with SK-OV-3, > 100 µM (inactive); in the test with K562 it was 35.9 µM (inactive); with LOX IMVI it was 26.7 µM (inactive). Further, the GI50 was 19.1 µM (inactive) in the test with SK-MEL-5; 8.36 µM (inactive) in the test on NCI-H522; 29.8 µM (inactive) in the test on RPMI-8226; 38.2 µM (inactive) with HOP-62; > 100 µM (inactive) in the test on 786-0; 32.5 µM (inactive) with KM12. For the same molecule, the GI50 in the test on SR is 33.4 µM (inactive); with SK-MEL-28 it was 50 µM (inactive); with A549, 28.7 µM (inactive); in the test with HCT-15 it was 4.15 µM; with COLO 205, 14 µM (inactive).

Regarding `Cc1cn2c(/C=N/NC(=N)N)c(-c3ccc(Cl)c([N+](=O)[O-])c3)nc2s1`, the GI50 was 1.58 µM (inactive) with PC-3; 1.43 µM (inactive) in the test on NCI-H23; 1.63 µM (inactive) in the test with M14; 1.78 µM (inactive) in the test on UACC-62; 1.76 µM (inactive) in the test on SK-OV-3; 0.257 µM (active) with K562. Further, the GI50 in the test with LOX IMVI was 0.409 µM (active); with SK-MEL-5, 1.56 µM (inactive); in the test with NCI-H522 it was 0.16 µM (active); in the test with RPMI-8226, 0.904 µM (active); in the test on HOP-62, 1.54 µM (inactive); in the test on 786-0 it was 0.984 µM (active). For the same molecule, the GI50 is 0.387 µM (active) in the test with KM12; 1.71 µM (inactive) with SK-MEL-28; 1.61 µM (inactive) with A549; 1.7 µM in the test on HCT-15; 0.661 µM (active) with COLO 205.

With `[N-]=[N+]=NC(CI)c1cn([C@H]2C[C@H](O)[C@@H](CO)O2)c(=O)[nH]c1=O` (stereo not given in full), the GI50 in the test with NCI-H23 is 90.4 µM (inactive); in the test on M14, > 100 µM (inactive); in the test on UACC-62, > 100 µM (inactive); in the test with SK-OV-3, > 100 µM (inactive); with K562, 83.9 µM (inactive); in the test with LOX IMVI it was > 100 µM (inactive). In addition, the GI50 in the test with SK-MEL-5 is > 100 µM (inactive); in the test with NCI-H522, > 100 µM (inactive); in the test on RPMI-8226, 51.5 µM (inactive); with HOP-62, > 100 µM (inactive); with 786-0, 63.2 µM (inactive); with KM12, > 100 µM (inactive). In addition, the GI50 in the test with SR was > 100 µM (inactive); in the test with SK-MEL-28 it was > 100 µM (inactive); with A549, 41.5 µM (inactive); in the test with HCT-15 it was over 100 µM; with COLO 205 it was > 100 µM (inactive).

For `COc1ccc(-c2cc(O)c3cc4c(cc3n2)OCO4)c(OC)c1`, the GI50 in the test on NCI-H23 was 70.3 µM (inactive); in the test with M14 it was 33.5 µM (inactive); with UACC-62, 28.3 µM (inactive); in the test with SK-OV-3 it was 87.3 µM (inactive); in the test with K562 it was 32 µM (inactive); in the test on LOX IMVI it was 47.9 µM (inactive). Moreover, the GI50 with SK-MEL-5 was 26.5 µM (inactive); in the test with NCI-H522 it was 46.9 µM (inactive); in the test on RPMI-8226, 28.3 µM (inactive); with HOP-62, 73.1 µM (inactive); in the test with 786-0 it was > 100 µM (inactive); in the test with KM12, 41.6 µM (inactive). In addition, the GI50 is 22.1 µM (inactive) with SR; 32.9 µM (inactive) in the test with SK-MEL-28; 41.8 µM (inactive) in the test on A549; 38.9 µM in the test with HCT-15; 46.2 µM (inactive) with COLO 205.

For `CC(=O)NC1C(OCc2ccccc2)OC(COC(=O)CCCCCCCCCCNC(=O)CCNc2ccc([N+](=O)[O-])c3[nH]c4ccc(O)cc4c(=O)c23)C(O)C1OC(C)C(=O)N[C@H](C(=O)N[C@H](CCC(=O)O)C(N)=O)C(C)C` (stereo not given in full), the GI50 is > 100 µM (inactive) in the test on NCI-H23; 48.5 µM (inactive) in the test with M14; 85.3 µM (inactive) with UACC-62; 84.1 µM (inactive) with SK-OV-3; 76.9 µM (inactive) in the test on K562; 28.8 µM (inactive) in the test with LOX IMVI. Also, the GI50 in the test on SK-MEL-5 is > 100 µM (inactive); in the test on NCI-H522 it was 17.4 µM (inactive); in the test with RPMI-8226, 19.2 µM (inactive); in the test with HOP-62, > 100 µM (inactive); in the test on 786-0, 76 µM (inactive); in the test with KM12 it was 63.4 µM (inactive). In addition, the GI50 in the test with SR was 20 µM (inactive); with SK-MEL-28, > 100 µM (inactive); in the test on A549, > 100 µM (inactive); in the test on HCT-15, over 100 µM; in the test on COLO 205, 32.4 µM (inactive).
